“Also recorded” adds a separate entry of the source. Read-outs that look alike come from different tables or passages of the source.
Columns and labels:
hilA expression = format: cell-based
[1] = test system: cholera toxin genes ctxAB; format: cell-based, Vibrio cholerae C6706 EI Tor strain
[2] = test system: HEp-2 cell invasion by Salmonella; format: cell-based
HilD [3] = target: T1, HilD (Salmonella typhimurium, UniProt P0CL08); format: binding
T1 construct: 6×His-NusA (followed by HRV 3C protease site) (N, cleaved yes); made in house; host or cells: E. coli BL21(DE3)
T1 sequence (P0CL08 1-309): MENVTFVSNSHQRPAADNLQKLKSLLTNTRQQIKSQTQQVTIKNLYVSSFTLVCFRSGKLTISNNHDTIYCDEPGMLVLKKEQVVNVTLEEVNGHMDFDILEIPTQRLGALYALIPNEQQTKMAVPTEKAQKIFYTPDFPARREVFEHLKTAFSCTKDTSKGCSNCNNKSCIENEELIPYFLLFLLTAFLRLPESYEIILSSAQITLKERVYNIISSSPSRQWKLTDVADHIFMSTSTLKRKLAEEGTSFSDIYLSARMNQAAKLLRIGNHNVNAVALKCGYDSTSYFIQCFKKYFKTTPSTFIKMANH

cholera toxin = format: cell-based, V. cholerae Haiti and N16961
HilD [4] = target: HilD (Salmonella typhimurium, UniProt P0CL08); format: cell-based
sopB expression = format: cell-based
[5] = test system: toxin co-regulated pili gene (tcpA); format: cell-based, Vibrio cholerae
HilC = target: T2, HilC (Salmonella typhimurium, UniProt P0CL09); format: binding
T2 sequence (P0CL09 1-295): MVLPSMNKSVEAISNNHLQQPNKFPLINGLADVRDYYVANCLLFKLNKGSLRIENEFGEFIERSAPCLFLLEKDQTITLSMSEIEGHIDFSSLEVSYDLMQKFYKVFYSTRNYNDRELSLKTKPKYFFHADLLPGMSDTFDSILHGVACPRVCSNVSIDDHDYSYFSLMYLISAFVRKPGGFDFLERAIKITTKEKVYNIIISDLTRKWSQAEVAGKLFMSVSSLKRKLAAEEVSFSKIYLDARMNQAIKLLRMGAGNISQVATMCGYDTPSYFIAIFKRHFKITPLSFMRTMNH

[6] = test system: Salmonella SPI1 expression (sicA-GFP); parameters: species or system C57BL/6 mice; details: mouse, in vivo
RtsA = format: binding, Salmonella
Salmonella = format: cell-based
[7] = hilC and rtsA deleted, hilD under tetracycline-inducible promoter, 20 μM (FIG. 4C)

CCCCCCCCCCCCCCCCC/C=C\C(=O)O [cis-2-eicosenoic acid, (Z)-icos-2-enoic acid]
reduction of hilA expression, chain length comparison (hilA expression; FIG. 1F): 10 fold | repression of hilA in the presence of hilD only (hilA expression; [7]): 3 fold

CCCCCCCCC/C=C\C(=O)O [cis-2-dodecenoic acid, (Z)-dodec-2-enoic acid]
potency in repressing invasion genes relative to c2-HDA (hilA expression): less potent in repressing invasion genes than c2-HDA | reduction of hilA expression, chain length comparison (hilA expression; FIG. 1F): 3 fold

CCCCCCCCCCCCC/C=C/C(=O)O [trans-2-hexadecenoic acid, reference compound]
fold less potent in repressing hilA than the cis-isomer (hilA expression; 20 μM fatty acids (FIG. 1A)): 31 fold

CCCCCCC/C=C\C(=O)O [cis-2-decenoic acid, (Z)-dec-2-enoic acid]
reduction of hilA expression, chain length comparison (hilA expression; FIG. 1F): 28%

CCCCCCCCCCCCCCCC(=O)O [palmitic acid, reference compound]
repression of ctxAB [1]: no repressive effects

CCCCCCCCCCCCCCCCC/C=C\C(=O)OC [cis-2-eicosenoic acid methyl ester]
repression of hilA expression by methyl ester (hilA expression): not to significantly repress hilA expression

CC(C)CCCCCCC/C=C\C(=O)O [cis-11-methyl-2-dodecenoic acid]
potency in repressing invasion genes relative to c2-HDA (hilA expression): less potent in repressing invasion genes than c2-HDA

CCCCCCCC/C=C\CCCCCCCC(=O)O [oleic acid, cis-9-octadecenoic acid, reference compound]
repression of ctxAB [1]: 1.3 fold | decrease of invasion of HEp-2 cells compared to untreated cultures ([2]; overnight growth with 20 μM compound): 70% | repression of hilA expression (hilA expression; 5 μM, hilA::luxCDABE, wild type (FIG. 1A)): 1.3 fold | repression of hilA in the presence of hilD only (hilA expression; [7]): 1.2 fold

CCCCCCCCCCCCC/C=C\C(=O)O [c2-HDA, (Z)-hexadec-2-enoic acid]
binding of HilD to the hilA promoter (HilD [3]): prevented the binding; also recorded: partially inhibited binding; also recorded: completely inhibited; also recorded: did so partially | concentrations at which effects on virulence gene expression were apparent [1]: ≥ 5 µM | repression of ctxAB [1]: 20 fold | repression of virulence gene expression compared to Virstatin [1]: repressed much more efficiently | cholera toxin secretion / toxin amounts in the culture media (cholera toxin): reduced; also recorded: reduces cholera toxin secretion | effect on HilD stability in the absence of Lon (HilD [4]): no effect on its stability | inhibition of sopB expression in Δlon and ΔhilE mutants (sopB expression): inhibited sopB expression in these mutants to the level observed in the wild type strain | repression of sopB (sopB expression): 11 fold | repression of sopB expression (sopB expression): 68 fold | expression of tcpA [5]: represses expression | decrease of invasion of HEp-2 cells compared to untreated cultures [2]: 78% | binding of HilC to the hilA promoter (HilC): preventing binding; also recorded: partially inhibited binding; also recorded: prevented binding; also recorded: did so partially | reduction of the percentage of bacteria expressing SPI1 in the caecum [6]: 2 fold | binding of RtsA to the hilA promoter (RtsA): preventing binding; also recorded: partially inhibited binding; also recorded: prevented binding; also recorded: did so partially | effect on bacterial growth (Salmonella): did not impair bacterial growth | inhibition of hilA expression (hilA expression): 39% | less potent in repressing hilA compared to the wild type (hilA expression): 39% | reduction of hilA expression in the presence of only hilC (hilA expression): 20 fold | reduction of hilA expression in the presence of only rtsA (hilA expression): 13 fold | reduction of hilA expression, chain length comparison (hilA expression): 159 fold | repression of hilA expression in the absence of Lon (hilA expression): continued to repress hilA expression | repression of hilA in the presence of hilD only (hilA expression): 78 fold

CCCCCCCCCCCCC/C=C\C(=O)OC [cis-2-hexadecenoic acid methyl ester]
repression of hilA expression by methyl ester (hilA expression): not to significantly repress hilA expression

O=C(O)CCCN1C(=O)c2cccc3cccc(c23)C1=O [virstatin, reference compound]
repression of ctxAB [1]: 1.2 fold

Source: US20230142090A1 (priority 2020, published 2023)
